Data taken from patent US12178940B2, “Controlled hydrogel delivery of focal adhesion kinase inhibitor for decreased scar formation” (THE BOARD OF TRUSTEES OF THE LELAND STANFORD JUNIOR …, priority 2018, dated 2024).
Counter-ions that a name gives are not always drawn. Like-named read-outs stand apart in the source and are kept apart here.

Columns and labels:
FAK = FAK (Homo sapiens, UniProt Q05397); settings: class symbols of Table 1, legend not given; cited from earlier work
advanced solid tumors = settings: cited from earlier work
Other Targets = settings: Table 1; cited from earlier work
murine dorsal incisions = type: in vivo; settings: daily local subcutaneous injection
Experimental: Hypertrophic scar model and local subcutaneous injection of FAKI: Incisional wounding and development of hypertrophic scars on the dorsum of mice were performed by previously described methods (Aarabi et al., 2007; Wong et al., 2011a). Animals were randomly assigned to receive 15, 75, or 150 μM concentrations of FAKI dissolved in 10% DMSO via daily local subcutaneous injection adjacent to the wound site. […] Specimens were harvested at Day 14 post-injury for histology and scar areas were quantified (FIG. 6).

incisional HTS model = settings: intradermal injection; cited from earlier work

FAK, sequence (Q05397 whole entry, species assumed): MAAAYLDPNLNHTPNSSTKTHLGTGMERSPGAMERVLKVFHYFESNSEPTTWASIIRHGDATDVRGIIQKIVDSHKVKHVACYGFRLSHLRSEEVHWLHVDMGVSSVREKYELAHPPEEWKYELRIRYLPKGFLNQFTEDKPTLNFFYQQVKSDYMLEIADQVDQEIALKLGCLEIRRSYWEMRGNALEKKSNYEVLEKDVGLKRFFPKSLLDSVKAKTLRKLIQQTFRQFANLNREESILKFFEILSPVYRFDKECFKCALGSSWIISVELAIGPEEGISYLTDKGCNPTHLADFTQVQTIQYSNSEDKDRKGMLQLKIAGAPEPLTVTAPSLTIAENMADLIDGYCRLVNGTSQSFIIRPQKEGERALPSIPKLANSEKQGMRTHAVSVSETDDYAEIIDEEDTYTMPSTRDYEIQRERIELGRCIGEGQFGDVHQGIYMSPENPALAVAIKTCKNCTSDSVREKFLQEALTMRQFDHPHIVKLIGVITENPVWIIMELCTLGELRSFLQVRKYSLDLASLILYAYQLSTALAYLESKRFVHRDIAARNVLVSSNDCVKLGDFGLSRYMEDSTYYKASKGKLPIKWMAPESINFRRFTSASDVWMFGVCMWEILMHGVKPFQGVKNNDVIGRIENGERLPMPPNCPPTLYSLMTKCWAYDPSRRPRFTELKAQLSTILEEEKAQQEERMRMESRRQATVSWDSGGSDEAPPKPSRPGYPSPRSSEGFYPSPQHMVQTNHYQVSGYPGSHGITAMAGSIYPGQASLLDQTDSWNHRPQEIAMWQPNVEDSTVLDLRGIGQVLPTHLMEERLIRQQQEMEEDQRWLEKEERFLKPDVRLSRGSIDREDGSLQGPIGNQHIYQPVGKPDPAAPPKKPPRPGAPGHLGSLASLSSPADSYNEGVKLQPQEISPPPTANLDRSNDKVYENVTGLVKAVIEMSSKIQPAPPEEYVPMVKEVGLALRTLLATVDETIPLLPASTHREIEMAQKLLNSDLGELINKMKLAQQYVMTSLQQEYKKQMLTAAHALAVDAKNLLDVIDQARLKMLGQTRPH

For `CNC(=O)c1ccc(Nc2ncc(C(F)(F)F)c(NCc3nccnc3N(C)S(C)(=O)=O)n2)cc1` [Defactinib], the FAK (FAK) is given as “✓” and the “efficacy in treatment of advanced solid tumors” value (advanced solid tumors; clinical trials) is given as “proven effective”.

In the case of `CN(c1ncccc1CNc1nc(Nc2ccc3c(c2)CC(=O)N3)ncc1C(F)(F)F)S(C)(=O)=O` [PF-562271 HCl], the “Other Targets” value (Other Targets) is listed as “CDK2/ CyclinE,CDK3/ CyclinE,CKD1/ CyclinB”.

For `CN(c1ncccc1CNc1nc(Nc2ccc3c(c2)CC(=O)N3)ncc1C(F)(F)F)S(C)(=O)=O` [PF-562271], the “scar lesions (Masson's Trichrome)” value (murine dorsal incisions; 15 μM FAKI in 10% DMSO) is given as “reduced scar lesions”, the “scar lesions (Masson's Trichrome)” value (murine dorsal incisions; 75 μM FAKI in 10% DMSO) is given as “reduced scar lesions” and the “efficacy in treatment of advanced solid tumors” value (advanced solid tumors; clinical trials) is given as “proven effective”. For the same molecule, the “pharmacokinetics in clinical trials” value (advanced solid tumors; clinical trials) was “desired pharmacokinetics”, the “reason for discontinuation as an anti-cancer agent” value (advanced solid tumors; dosed orally) was “potential drug-drug interactions” and the major systemic toxicities (advanced solid tumors; oral administration, clinical trials) was “nausea/vomiting and gastrointestinal-related adverse effects”.

In the case of `CS(=O)(=O)c1cccc(CNc2nc(Nc3ccc4c(c3)CCC(=O)N4)ncc2C(F)(F)F)c1` [PF-573228], the inflammatory chemokine pathways (incisional HTS model) is given as “suppressed inflammatory chemokine pathways” and the scarring in vivo (incisional HTS model) is given as “attenuated scarring”.

For `CC(=O)NCC(=O)N1[C@@H]2CC[C@H]1c1ccc(Nc3ncc(C(F)(F)F)c(NC4CCC4)n3)cc12` [PF-03814735], the “Other Targets” value (Other Targets) is listed as “Aurora A, Aurora B, FLT1”.

For `CC(C)=CCC/C(C)=C/CC/C(C)=C/CC/C(C)=C/CC/C(C)=C/CC/C(C)=C/CC/C(C)=C/CC/C(C)=C/CC/C(C)=C/CO` [Solanesol], the FAK (FAK) is given as “✓”.

For `CNC(=O)c1ccccc1Nc1nc(Nc2ccc(N3CCOCC3)cc2OC)ncc1Cl` [TAE226], the “Other Targets” value (Other Targets) is given as “Insulin Receptor, IGF-1R, c-Met”.
